Source: paper PMC9481570, “A small molecule antagonist of SMN disrupts the interaction between SMN and RNAP II” (Nature Communications, 2022)
“And” between values parts separate entries of the source, which are not always exact repeats. Equal entries are not always repeated.

Key:
Experiment in all cases: Affinity-purification and mass spectrometry (AP-MS) chemical proteomics, all proteins;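 for Difference: 200 µM free competitor with 20 µM biotin probe overnight in lysate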
Format in all cases: binding
[1] = target: T1, proteins displaced from immobilized biotin-Cmpd 1 pulldowns (U2OS cell lysate) (Homo sapiens, UniProt Q9NR12); settings: GN=PDLIM7 (Q9NR12)
T1 construct: endogenous in cells; host or cells: U2OS

[2] = target: T2, proteins displaced from immobilized biotin-Cmpd 1 pulldowns (U2OS cell lysate) (Homo sapiens, UniProt O60832); settings: GN=DKC1 (O60832)
T2 construct: endogenous in cells; host or cells: U2OS

[3] = target: T3, proteins displaced from immobilized biotin-Cmpd 1 pulldowns (U2OS cell lysate) (Homo sapiens, UniProt Q6UB35); settings: GN=MTHFD1L (Q6UB35)
T3 construct: endogenous in cells; host or cells: U2OS

[4] = target: T4, proteins displaced from immobilized biotin-Cmpd 1 pulldowns (U2OS cell lysate) (Homo sapiens, UniProt Q13573); settings: GN=SNW1 (Q13573)
T4 construct: endogenous in cells; host or cells: U2OS

[5] = target: T5, proteins displaced from immobilized biotin-Cmpd 1 pulldowns (U2OS cell lysate) (Homo sapiens, UniProt O75616); settings: GN=ERAL1 (O75616)
T5 construct: endogenous in cells; host or cells: U2OS

[6] = target: T6, proteins displaced from immobilized biotin-Cmpd 1 pulldowns (U2OS cell lysate) (Homo sapiens, UniProt P55072); settings: GN=VCP (P55072)
T6 construct: endogenous in cells; host or cells: U2OS

[7] = target: T7, proteins displaced from immobilized biotin-Cmpd 1 pulldowns (U2OS cell lysate) (Homo sapiens, UniProt O75369); settings: GN=FLNB (O75369)
T7 construct: endogenous in cells; host or cells: U2OS

[8] = target: T8, proteins displaced from immobilized biotin-Cmpd 1 pulldowns (U2OS cell lysate) (Homo sapiens, UniProt P19367); settings: GN=HK1 (P19367)
T8 construct: endogenous in cells; host or cells: U2OS

[9] = target: T9, proteins displaced from immobilized biotin-Cmpd 1 pulldowns (U2OS cell lysate) (Homo sapiens, UniProt Q8WXX7); settings: GN=AUTS2 (Q8WXX7)
T9 construct: endogenous in cells; host or cells: U2OS

[10] = target: T10, proteins displaced from immobilized biotin-Cmpd 1 pulldowns (U2OS cell lysate) (Homo sapiens, UniProt P47756); settings: GN=CAPZB (P47756)
T10 construct: endogenous in cells; host or cells: U2OS
T10 sequence (P47756 whole entry): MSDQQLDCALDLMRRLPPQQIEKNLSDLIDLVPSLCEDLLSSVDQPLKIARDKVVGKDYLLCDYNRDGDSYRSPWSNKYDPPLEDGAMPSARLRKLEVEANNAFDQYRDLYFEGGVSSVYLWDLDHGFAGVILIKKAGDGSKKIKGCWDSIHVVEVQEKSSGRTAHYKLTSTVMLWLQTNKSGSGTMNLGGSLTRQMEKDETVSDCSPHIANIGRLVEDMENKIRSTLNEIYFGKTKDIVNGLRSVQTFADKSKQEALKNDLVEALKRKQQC

T7 sequence (O75369 whole entry): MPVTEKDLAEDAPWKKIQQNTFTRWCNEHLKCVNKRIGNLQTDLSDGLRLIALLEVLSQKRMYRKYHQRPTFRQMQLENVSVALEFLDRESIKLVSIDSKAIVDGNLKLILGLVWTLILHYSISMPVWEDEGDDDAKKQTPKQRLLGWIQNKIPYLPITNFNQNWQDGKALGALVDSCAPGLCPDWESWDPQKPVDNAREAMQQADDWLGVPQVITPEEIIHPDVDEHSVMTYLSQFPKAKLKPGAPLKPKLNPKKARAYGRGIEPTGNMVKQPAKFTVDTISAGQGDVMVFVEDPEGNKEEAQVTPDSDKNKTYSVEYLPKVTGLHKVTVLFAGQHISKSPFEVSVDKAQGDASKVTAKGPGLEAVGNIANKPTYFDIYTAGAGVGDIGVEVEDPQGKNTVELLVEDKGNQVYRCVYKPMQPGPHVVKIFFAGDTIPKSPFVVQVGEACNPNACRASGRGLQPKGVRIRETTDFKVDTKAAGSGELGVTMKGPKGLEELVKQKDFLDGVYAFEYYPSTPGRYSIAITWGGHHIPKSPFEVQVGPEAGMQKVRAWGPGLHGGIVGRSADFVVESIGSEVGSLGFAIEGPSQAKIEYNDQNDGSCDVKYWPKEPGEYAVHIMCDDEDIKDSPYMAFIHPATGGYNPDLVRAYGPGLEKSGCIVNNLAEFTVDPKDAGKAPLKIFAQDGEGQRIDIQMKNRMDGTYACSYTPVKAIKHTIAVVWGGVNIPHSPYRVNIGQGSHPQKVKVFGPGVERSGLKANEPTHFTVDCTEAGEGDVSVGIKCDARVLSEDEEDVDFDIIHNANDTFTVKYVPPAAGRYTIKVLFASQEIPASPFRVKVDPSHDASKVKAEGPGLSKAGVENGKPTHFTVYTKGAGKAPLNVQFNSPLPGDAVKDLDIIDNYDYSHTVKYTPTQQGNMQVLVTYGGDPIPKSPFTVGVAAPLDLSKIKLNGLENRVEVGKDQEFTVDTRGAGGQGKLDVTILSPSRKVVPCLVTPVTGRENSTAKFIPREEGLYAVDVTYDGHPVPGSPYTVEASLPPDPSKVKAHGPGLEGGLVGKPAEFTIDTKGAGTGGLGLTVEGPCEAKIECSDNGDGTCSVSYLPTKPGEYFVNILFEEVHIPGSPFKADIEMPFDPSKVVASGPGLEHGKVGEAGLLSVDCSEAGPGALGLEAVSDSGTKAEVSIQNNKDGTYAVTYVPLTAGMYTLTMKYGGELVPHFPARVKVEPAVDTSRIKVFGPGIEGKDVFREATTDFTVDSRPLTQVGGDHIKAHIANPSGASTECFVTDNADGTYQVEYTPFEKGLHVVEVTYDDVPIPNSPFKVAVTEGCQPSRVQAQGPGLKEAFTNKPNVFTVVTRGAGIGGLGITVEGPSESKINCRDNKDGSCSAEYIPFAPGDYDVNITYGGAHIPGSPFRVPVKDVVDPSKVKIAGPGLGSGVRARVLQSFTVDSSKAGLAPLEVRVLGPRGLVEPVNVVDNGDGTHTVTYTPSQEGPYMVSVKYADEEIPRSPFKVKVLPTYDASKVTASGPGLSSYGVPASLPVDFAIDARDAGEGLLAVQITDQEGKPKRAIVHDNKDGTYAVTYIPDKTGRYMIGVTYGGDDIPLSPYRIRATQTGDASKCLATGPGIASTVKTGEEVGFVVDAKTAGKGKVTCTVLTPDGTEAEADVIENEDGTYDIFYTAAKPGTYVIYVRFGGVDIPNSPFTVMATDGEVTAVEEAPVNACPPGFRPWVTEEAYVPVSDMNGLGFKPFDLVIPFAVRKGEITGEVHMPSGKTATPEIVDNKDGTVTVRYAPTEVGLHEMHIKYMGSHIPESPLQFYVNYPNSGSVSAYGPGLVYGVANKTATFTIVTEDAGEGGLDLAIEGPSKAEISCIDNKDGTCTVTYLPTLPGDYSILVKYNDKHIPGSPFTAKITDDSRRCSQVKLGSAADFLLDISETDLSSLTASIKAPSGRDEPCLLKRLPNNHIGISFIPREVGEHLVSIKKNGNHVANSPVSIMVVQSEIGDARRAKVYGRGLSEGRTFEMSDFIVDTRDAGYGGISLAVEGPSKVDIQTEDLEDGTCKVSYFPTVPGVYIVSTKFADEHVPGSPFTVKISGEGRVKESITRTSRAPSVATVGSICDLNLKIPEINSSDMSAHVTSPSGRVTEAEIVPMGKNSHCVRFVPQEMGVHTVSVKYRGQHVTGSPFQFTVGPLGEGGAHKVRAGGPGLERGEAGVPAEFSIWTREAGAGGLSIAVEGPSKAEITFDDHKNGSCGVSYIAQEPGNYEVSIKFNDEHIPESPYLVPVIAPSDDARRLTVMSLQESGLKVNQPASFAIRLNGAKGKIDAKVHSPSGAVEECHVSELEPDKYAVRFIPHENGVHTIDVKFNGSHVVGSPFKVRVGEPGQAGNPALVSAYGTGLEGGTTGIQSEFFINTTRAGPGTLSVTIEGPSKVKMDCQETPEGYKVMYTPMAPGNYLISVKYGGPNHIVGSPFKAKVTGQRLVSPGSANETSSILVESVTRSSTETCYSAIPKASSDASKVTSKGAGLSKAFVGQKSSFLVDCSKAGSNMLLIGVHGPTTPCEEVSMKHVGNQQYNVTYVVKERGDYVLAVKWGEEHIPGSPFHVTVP
T5 sequence (O75616 44-437): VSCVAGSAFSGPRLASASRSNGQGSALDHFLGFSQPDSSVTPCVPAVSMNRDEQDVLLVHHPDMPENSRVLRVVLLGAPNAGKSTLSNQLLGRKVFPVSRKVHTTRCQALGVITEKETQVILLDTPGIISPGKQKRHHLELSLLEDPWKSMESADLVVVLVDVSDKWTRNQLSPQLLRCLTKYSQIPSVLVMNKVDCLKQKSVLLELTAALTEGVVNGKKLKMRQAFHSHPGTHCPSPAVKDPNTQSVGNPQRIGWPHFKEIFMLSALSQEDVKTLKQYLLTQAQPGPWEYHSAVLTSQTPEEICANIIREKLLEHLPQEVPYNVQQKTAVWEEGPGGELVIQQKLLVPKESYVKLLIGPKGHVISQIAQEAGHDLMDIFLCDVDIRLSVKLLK
T3 sequence (Q6UB35 32-978): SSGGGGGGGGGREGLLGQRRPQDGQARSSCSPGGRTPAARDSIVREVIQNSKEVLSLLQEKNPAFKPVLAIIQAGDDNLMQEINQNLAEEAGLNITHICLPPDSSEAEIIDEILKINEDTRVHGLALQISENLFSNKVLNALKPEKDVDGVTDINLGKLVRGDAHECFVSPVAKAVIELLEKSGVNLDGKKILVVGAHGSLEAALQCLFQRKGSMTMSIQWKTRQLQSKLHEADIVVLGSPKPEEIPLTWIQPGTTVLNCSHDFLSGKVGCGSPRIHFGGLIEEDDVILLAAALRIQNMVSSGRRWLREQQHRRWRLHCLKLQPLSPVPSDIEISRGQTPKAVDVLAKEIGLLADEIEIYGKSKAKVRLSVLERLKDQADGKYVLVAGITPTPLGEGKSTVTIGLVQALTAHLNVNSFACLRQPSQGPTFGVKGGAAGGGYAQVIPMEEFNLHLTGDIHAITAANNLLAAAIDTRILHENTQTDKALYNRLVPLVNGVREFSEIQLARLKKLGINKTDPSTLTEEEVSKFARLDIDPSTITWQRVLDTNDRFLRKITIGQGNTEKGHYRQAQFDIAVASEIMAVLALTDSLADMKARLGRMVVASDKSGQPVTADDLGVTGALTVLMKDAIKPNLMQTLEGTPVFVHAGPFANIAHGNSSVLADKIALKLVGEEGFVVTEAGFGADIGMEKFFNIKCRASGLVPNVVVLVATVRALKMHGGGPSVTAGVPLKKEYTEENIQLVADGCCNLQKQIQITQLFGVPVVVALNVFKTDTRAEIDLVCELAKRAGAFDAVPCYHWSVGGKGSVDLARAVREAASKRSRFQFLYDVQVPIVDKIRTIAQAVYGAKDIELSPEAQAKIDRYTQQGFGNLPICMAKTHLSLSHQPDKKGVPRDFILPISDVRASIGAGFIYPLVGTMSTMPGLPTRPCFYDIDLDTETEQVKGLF
T2 sequence (O60832 whole entry): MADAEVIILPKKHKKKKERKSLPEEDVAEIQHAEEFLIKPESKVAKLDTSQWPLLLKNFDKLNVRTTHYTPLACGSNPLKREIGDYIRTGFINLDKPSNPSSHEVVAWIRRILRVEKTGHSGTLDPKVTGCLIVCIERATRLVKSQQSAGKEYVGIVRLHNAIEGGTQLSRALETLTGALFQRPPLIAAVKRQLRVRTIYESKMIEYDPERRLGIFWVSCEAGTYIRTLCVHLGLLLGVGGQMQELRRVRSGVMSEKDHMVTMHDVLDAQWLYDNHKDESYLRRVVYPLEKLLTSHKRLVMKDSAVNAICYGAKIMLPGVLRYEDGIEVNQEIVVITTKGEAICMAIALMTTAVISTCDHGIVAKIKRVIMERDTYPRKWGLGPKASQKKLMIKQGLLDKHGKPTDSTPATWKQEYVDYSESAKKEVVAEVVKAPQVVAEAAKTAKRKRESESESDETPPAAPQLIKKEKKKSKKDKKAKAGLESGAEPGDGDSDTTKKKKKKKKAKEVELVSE

Cn1c2c(c(=N)c3c1CCC3)CCC2 [Compound 1, 4-methyl-2,3,4,5,6,7-hexahydrodicyclopenta[b,e]pyridin-8(1H)-imine]
Difference ([1]; Cmpd minus DMSO, -LOG(P-value) 0.715156): 2.317
iBAQ Cmpd ([1]; replicates 1-3): 18.0201 and 21.1113 and 16.886
Difference ([2]; Cmpd minus DMSO, -LOG(P-value) 0.760368): 0.5453
iBAQ Cmpd ([2]; replicates 1-3): 19.0033 and 19.8581 and 19.0089
Difference ([3]; Cmpd minus DMSO, -LOG(P-value) 1.33022): 0.8728
iBAQ Cmpd ([3]; replicates 1-3): 15.8133 and 15.8201 and 15.0604
Difference ([4]; Cmpd minus DMSO, -LOG(P-value) 1.77748): 2.177
iBAQ Cmpd ([4]; replicates 1-3): 17.1233 and 17.0397 and 16.2301
Difference ([5]; Cmpd minus DMSO, -LOG(P-value) 0.929321): 2.334
iBAQ Cmpd ([5]; replicates 1-3): 17.6381 and 15.7018 and 17.9385
Difference ([6]; Cmpd minus DMSO, -LOG(P-value) 1.20929): 2.227
iBAQ Cmpd ([6]; replicates 1-3): 18.6461 and 18.1931 and 16.8577
Difference ([7]; Cmpd minus DMSO, -LOG(P-value) 0.706969): 1.057
iBAQ Cmpd ([7]; replicates 1-3): 17.1694 and 17.27 and 16.0757
Difference ([8]; Cmpd minus DMSO, -LOG(P-value) 0.855582): 0.9514
iBAQ Cmpd ([8]; replicates 1-3): 18.5229 and 17.0452 and 17.0803
Difference ([9]; Cmpd minus DMSO, -LOG(P-value) 1.37908): 1.498
iBAQ Cmpd ([9]; replicates 1-3): 16.2582 and 17.12 and 17.1513
Difference ([10]; Cmpd minus DMSO, -LOG(P-value) 1.09295): -1.787
iBAQ Cmpd ([10]; replicates 1-3): 15.5737 and 16.3289 and 18.0803
